Assay results reported in patent US12180210B2, “Compounds” (INTRA-CELLULAR THERAPIES, INC., priority 2018, dated 2024).
pIC50: −log10 of the molar value. Read-outs that look alike come from different tables or passages of the source.

What was measured:
mice [1] = test: Forced swim paradigm, acute antidepressant-like activity; assay type: in vivo
mice [2] = test: Elevated plus maze, acute anxiolytic activity; settings: compound 1, 2, and 5 mg/kg, i.p., diazepam 0.5 mg/kg
mice [3] = test: Tail suspension paradigm, acute antidepressant-like activity; assay type: in vivo
[4] = Pharmacokinetic study in mice, plasma and brain availability; settings: single oral dose 10 mg/kg PO
Method: (§1) Mice are given a single oral dose of the compound to be tested (10 mg/kg, PO) and plasma and brain availability are measured (0.25-4h) using HPLC and LC-MS using methods analogous to those described in Zhao et al., J. Chromatogr.

mice [5] = test: Hole board test, acute anxiolytic activity; settings: compound 1, 2, and 5 mg/kg, i.p., diazepam 0.5 mg/kg
mice [6] = test: Spontaneous locomotor activity; settings: same dose levels that increased anxiolytic activity
PDE1 = test: PDE isoform inhibition, IMAP procedure; assay type: biochemical
[7] = tested on: VASP (vasodilator stimulated phosphoprotein); test: Phosphorylation of effector proteins under cGMP/cAMP control: VASP; assay type: cell-based
[8] = tested on: cGMP and cAMP levels in hippocampus; test: In vivo levels of cGMP and cAMP in mouse brain (hippocampus); settings: mice killed 30 min after injection
Method: For these studies, mice were killed 30 min after injection of each drug/dose and hippocampus isolated and used for measurement of cyclic nucleotides.

in vivo = settings: mouse, po, 10 mg/kg
Method: as §1

BDNF = test: Expression of the growth factor BDNF; assay type: cell-based
HT22 cells = test: cAMP levels in HT22 cells stimulated by isoproterenol; assay type: cell-based
PDE5 = PDE5 (Homo sapiens, UniProt O76074); test: PDE isoform inhibition, IMAP procedure; assay type: biochemical
mice [9] = settings: mouse, in vivo
PDE4 = tested on: T1, PDE4; test: PDE isoform inhibition, IMAP procedure; assay type: biochemical
T1 construct: PDE4 IC50

[10] = tested on: HT-22 (hippocampal-like) cells; test: cGMP levels in HT-22 cells stimulated by NMDA; assay type: cell-based
PDE3 = test: PDE isoform inhibition, IMAP procedure; assay type: biochemical
PDE6 = test: PDE isoform inhibition, IMAP procedure; assay type: biochemical
[11] = tested on: CREB (cAMP response element-binding protein); test: Phosphorylation of effector proteins under cGMP/cAMP control: CREB; assay type: cell-based

With COc1ccc(Cc2nn3c([C@@H](CCCc4ccccc4)[C@@H](C)O)nc(C)c3c(=O)[nH]2)cc1OC [BAY-7550] the “Immobility time / antidepressant-like activity, forced swim” value (mice [1]) was “generally smaller effects that did not reach significance in all assays”, the “Open arm entrances, elevated plus maze” value (mice [2]) was “small trends for these assays that did not achieve statistical significance” and the “Open arm entrances, elevated plus maze” value (mice [2]; listed as commercial PDE2 inhibitor) was “no statically significant effect”. For the same molecule, the “Immobility time / antidepressant-like activity, tail suspension” value (mice [3]) was “generally smaller effects that did not reach significance in all assays” and the Tmax [4] was 0.25.

With CN1C(=O)CN=C(c2ccccc2)c2cc(Cl)ccc21 [Diazepam, diazepam] the “Open arm entrances, elevated plus maze” value (mice [2]) was “increased entrance into open arms”, the “Exploration, hole board test” value (mice [5]) was “increased explorations” and the Spontaneous locomotor activity (mice [6]) was “did not significantly affect spontaneous locomotor activity”.

With CNCCCN1c2ccccc2CCc2ccccc21 [Desipramine, desipramine] the “Immobility time / antidepressant-like activity, forced swim” value (mice [1]) was “induced signs of antidepressant-like activity” and the “Immobility time / antidepressant-like activity, tail suspension” value (mice [3]) was “induced signs of antidepressant-like activity”.

For Cc1ccc(-c2c(-c3nc(C)n4ccnc(N5CCC5)c34)cnn2C)cc1 [Compound 1, 8-(azetidin-1-yl)-3-methyl-1-(1-methyl-5-(p-tolyl)-1H-pyrazol-4-yl)imidazo[1,5-a]pyrazine], the pIC50 (PDE1) was 5.08, the “Phosphorylation of VASP” value [7] was “concentration-dependent increase” and the “Immobility time / antidepressant-like activity, forced swim” value (mice [1]) was “significantly reduced immobility time”. The “cAMP levels in hippocampus” value [8] was “significant increases”, the “cGMP levels in hippocampus” value [8] was “significant increases” and the AUC(0-t) (in vivo) was 119 ng·h/mL. For the same molecule, the Cmax (in vivo) was 268 ng/mL, the Tmax (in vivo) was 30 min and the half-life (in vivo) was 48 min. For the same molecule, the “Expression of BDNF” value (BDNF) was “increased the expression”, the “Open arm entrances, elevated plus maze” value (mice [2]) was “significantly increased open arm entrances” and the “Optimal dose for stimulation of cAMP levels” value (HT22 cells) was 10 nM. The cAMP levels (HT22 cells; isoproterenol (ISO, 10 nM)) was “dose-dependent increase”, the “Immobility time / antidepressant-like activity, tail suspension” value (mice [3]) was “significantly reduced immobility time” and the pIC50 (PDE5) was 4.82. For the same molecule, the Spontaneous locomotor activity (mice [9]) was “did not significantly affect spontaneous locomotor activity”, the pIC50 (PDE4) was 4.61 and the “Optimal dose for stimulation of cGMP levels” value [10] was 10 nM. The cGMP levels ([10]; NMDA (20 μM), 15 min incubation) was “dose-dependent increase”, the pIC50 (PDE3) was under 4.00 and the pIC50 (PDE6) was under 4.00. For the same molecule, the “Phosphorylation of CREB” value [11] was “concentration-dependent increase”.
